From patent US20090005390A1, “NOVEL QUINUCLIDINE DERIVATIVES AND THEIR USE” (N[…]/S, priority 2002, published 2009) come the findings set out here.

The term melting point denotes the temperature, or range, at which the solid turns liquid. The IC50 is the concentration at which inhibition is half-maximal. High values mean a need for much substance, low ones inhibition by little substance.

SMILES strings stand for the structures.

Data set [1] has as its target T1, α7-subtype of nicotinic receptors (Rattus norvegicus, UniProt Q05941).
T1 construct: Cerebral cortices from male Wistar rats (150-250 g) are homogenised; from tissue; host or cells: rat cerebral cortex membrane homogenate
Description: In vitro inhibition of 3H-α-bungarotoxine binding in rat brain. The settings on record: rat cerebral cortex homogenate; 3H-α-bungarotoxine 2 nM; 2 hours at 37° C.

T1 sequence (Q05941 23-502): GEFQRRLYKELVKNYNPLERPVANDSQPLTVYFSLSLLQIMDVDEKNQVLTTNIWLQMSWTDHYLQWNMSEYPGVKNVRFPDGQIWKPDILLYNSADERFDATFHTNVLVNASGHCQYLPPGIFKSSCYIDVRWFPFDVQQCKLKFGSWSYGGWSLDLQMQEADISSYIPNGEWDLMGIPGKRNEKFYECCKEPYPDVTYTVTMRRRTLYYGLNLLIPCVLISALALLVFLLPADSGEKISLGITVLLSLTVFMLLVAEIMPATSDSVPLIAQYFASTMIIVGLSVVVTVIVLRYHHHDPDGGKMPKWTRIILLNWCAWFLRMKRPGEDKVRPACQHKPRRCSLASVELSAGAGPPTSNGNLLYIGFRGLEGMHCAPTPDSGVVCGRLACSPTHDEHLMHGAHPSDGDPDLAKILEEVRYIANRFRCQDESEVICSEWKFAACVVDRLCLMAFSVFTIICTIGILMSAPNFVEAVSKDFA

`O=C(O)/C=C/C(=O)O.c1ccc2cc(OC3CN4CCC3CC4)ccc2c1` (racemic) yielded a melting point of 140.9 to 141.6 °C.

`O=C(O)/C=C/C(=O)O.c1ccc(-c2ccccc2OC2CN3CCC2CC3)cc1` (racemic) registered a melting point of 125.4 °C. On the same count and under the same terms, to `O=C(O)/C=C/C(=O)O.c1cnc2ccc(OC3CN4CCC3CC4)cc2c1` (racemic) belongs 146 to 147 °C; to `O=C(O)/C=C/C(=O)O.c1cc2c(cc1OC1CN3CCC1CC3)CCC2` (racemic), 149.3 to 150.5 °C.

`O=C(O)/C=C/C(=O)O.c1cc2c(cc1OC1CN3CCC1CC3)CCCC2` (racemic) returned a melting point of 109.7 to 111.3 °C. The same measure, in the same setting: the result for `O=C(O)/C=C/C(=O)O.c1ccc2nc(OC3CN4CCC3CC4)ccc2c1` (racemic) reads 160 to 160.5 °C; that for `Brc1cnc(OC2CN3CCC2CC3)s1.O=C(O)/C=C/C(=O)O` (racemic), 157.8 to 162.1 °C. The same measure, in the same setting: the result for `O=C(O)/C=C/C(=O)O.c1ccc2c(OC3CN4CCC3CC4)nsc2c1` (racemic) reads 172.3 to 173.6 °C.

As to `Brc1ccc(OC2CN3CCC2CC3)nn1.O=C(O)/C=C/C(=O)O` (racemic), the melting point is 152.8 °C. Regarding `Clc1ccc(OC2CN3CCC2CC3)nn1.O=C(O)/C=C/C(=O)O` (racemic), the melting point was 164 to 164.5 °C. Same read-out and setting: to `COc1nc2ccccc2nc1OC1CN2CCC1CC2.O=C(O)/C=C/C(=O)O` (racemic) belongs 168.5 to 170 °C; to `Clc1nc2ccccc2nc1OC1CN2CCC1CC2.O=C(O)/C=C/C(=O)O` (racemic), 120.8 to 122.1 °C. For `Cn1c(OC2CN3CCC2CC3)nc2ccccc21.O=C(O)/C=C/C(=O)O` (racemic), the melting point was 184.9 to 185.9 °C. Same read-out and setting: to `O=C(O)/C=C/C(=O)O.c1ccc2oc(OC3CN4CCC3CC4)nc2c1` (racemic) belongs 187.2 to 188.8 °C. Still for that read-out and setting: to `O=C(O)/C=C/C(=O)O.c1ccc2nc(OC3CN4CCC3CC4)cnc2c1` (racemic) belongs 127.7 to 128.5 °C; to `O=C(O)/C=C/C(=O)O.c1ccc(-c2ccc(OC3CN4CCC3CC4)nn2)cc1` (racemic), 168.5 to 172 °C; to `O=C(O)/C=C/C(=O)O.c1ccc(-c2nnc(OC3CN4CCC3CC4)s2)cc1` (racemic), 168.5 to 172 °C. Same read-out and setting: the result for `C.I.c1ccc2nc(OC3CN4CCC3CC4)cnc2c1` (racemic) reads 229 to 230 °C. `C.I.c1ccc2nc(OC3CN4CCC3CC4)ccc2c1` (racemic): the melting point was in the range of 156.6 to 175.2 °C. The same measure, in the same setting: the result for `C.I.c1ccc2c(OC3CN4CCC3CC4)nsc2c1` (racemic) reads 180.1 to 186.4 °C; that for `O=C(O)/C=C/C(=O)O.c1cc(-c2ccc(OC3CN4CCC3CC4)nn2)co1` (racemic), 224.8 to 225.4 °C; that for `O=C(O)/C=C/C(=O)O.c1cncc(-c2ccc(OC3CN4CCC3CC4)nn2)c1` (racemic), 137.2 to 143.2 °C.

As for `Fc1ccc(-c2cnc(OC3CN4CCC3CC4)s2)c(F)c1.O=C(O)/C=C/C(=O)O` (racemic), the melting point is 84.3 to 86.3 °C. Still for that read-out and setting: to `O=C(O)/C=C/C(=O)O.c1coc(-c2ccc(OC3CN4CCC3CC4)nn2)c1` (racemic) belongs 175.8 to 178.2 °C. Compound `O=C(O)/C=C/C(=O)O.c1ccc(-c2ccc(OC3CN4CCC3CC4)cc2)cc1` (racemic) [Compound A2, (±)-3-(4-Phenylphenyloxy)-1-aza-bicyclo[2.2.2]octane fumaric acid salt] had a melting point of 173.5 to 185.1 °C. In data set [1], this compound registered an IC50 of 160 nM.

With `Clc1ccc2nc(OC3CN4CCC3CC4)sc2c1.O=C(O)/C=C/C(=O)O` (racemic) [Compound B2, (±)-3-(6-Chloro-benzothiazol-2-yloxy)-1-aza-bicyclo[2.2.2]octane fumaric acid salt], the melting point lay within 203 to 205 °C. This compound showed a half-maximal inhibitory concentration (IC50) in data set [1] of 180 nM. In turn, `O=C(O)/C=C/C(=O)O.c1ccc2sc(OC3CN4CCC3CC4)nc2c1` (racemic) [Compound B3, (±)-3-(Benzothiazol-2-yloxy)-1-aza-bicyclo[2.2.2]octane fumaric acid salt] had a melting point of 173.7 to 174.2 °C. For the same compound, the IC50 in data set [1] was found to be 170 nM. For `O=C(O)/C=C/C(=O)O.c1cc(-c2nnc(OC3CN4CCC3CC4)s2)cs1` (racemic) [Compound B17, (±)-3-[5-(3-Thienyl)-1,3,4-thiadiazol-2-yloxy]-1-aza-bicyclo[2.2.2]octane fumaric acid salt], the melting point was 186 to 188 °C. The IC50 in data set [1] was determined as 150 nM. The like results for `O=C(O)/C=C/C(=O)O.c1ccc(-c2cnc(OC3CN4CCC3CC4)s2)cc1` (racemic) [Compound D1, (±)-3-(5-Phenyl-thiazol-2-yloxy)-1-aza-bicyclo[2.2.2]octane fumaric acid salt] were, in that order, 170.9 to 172.2 °C and 52 nM. In the same order, the values of `O=C(O)/C=C/C(=O)O.c1cc(-c2cnc(OC3CN4CCC3CC4)s2)cs1` (racemic) [Compound D3, (±)-3-[5-(3-Thienyl)-thiazol-2-yloxy]-1-aza-bicyclo[2.2.2]octane fumaric acid salt] are 68.5 to 74.3 °C and 110 nM.

Turning to `O=C(O)/C=C/C(=O)O.c1csc(-c2cnc(OC3CN4CCC3CC4)s2)c1` (racemic) [Compound D4, (±)-3-[5-(2-Thienyl)-thiazol-2-yloxy]-1-aza-bicyclo[2.2.2]octane fumaric acid salt], the melting point is 152.6 to 154.9 °C. The compound further gave an IC50 in data set [1] of 20 nM. The like results for `O=C(O)/C=C/C(=O)O.c1cc(-c2cnc(OC3CN4CCC3CC4)s2)co1` (racemic) [Compound D5, (±)-3-[5-(3-Furanyl)-thiazol-2-yloxy]-1-aza-bicyclo[2.2.2]octane fumaric acid salt] were, in that order, 127.6 to 136.2 °C and 48 nM. `O=C(O)/C=C/C(=O)O.c1cncc(-c2cnc(OC3CN4CCC3CC4)s2)c1` (racemic) [Compound D6, (±)-3-[5-(3-Pyridyl)-thiazol-2-yloxy]-1-aza-bicyclo[2.2.2]octane fumaric acid salt] returned a melting point of 82.7 to 86 °C. In data set [1], the IC50 is 180 nM. The like results for `O=C(O)/C=C/C(=O)O.c1cc(-c2ccc(OC3CN4CCC3CC4)nn2)cs1` (racemic) [Compound D7, (±)-3-[6-(3-Thienyl)-pyridazin-3-yloxy]-1-aza-bicyclo[2.2.2]octane fumaric acid salt] were, in that order, 197.9 °C and 130 nM. In the same order, the values of `O=C(O)/C=C/C(=O)O.c1csc(-c2ccc(OC3CN4CCC3CC4)nn2)c1` (racemic) [Compound D8, (±)-3-[6-(2-Thienyl)-pyridazin-3-yloxy]-1-aza-bicyclo[2.2.2]octane fumaric acid salt] are 180.3 to 191.1 °C and 53 nM.
